Source: patent US4607012A, “Antibiotic SB 22484” (Gruppo Lepetit S.p.A., priority 1983, dated 1986)

Legend:
N. gonorrhoeae L 1599 = assay: in vitro antibacterial activity (standard dilution test); assay type: cell-based; details: Neisseria gonorrhoeae, L1599; N. gonorrhoeae L 1599, clinically isolated, penicillinase producing; GC agar base + 1% Iso-Vitalex, CO2 enriched, 18-24 h, 37° C
Method: (§1) Iso-Sensitest broth (Oxoid) and Todd-Hewitt broth (Difco) are used for staphylococci and streptococci, respectively, Neisseriae strains are cultured on GC agar base (Difco)+1% Iso-Vitalex (BBL) and Hemophylus is cultured on GC agar base (Difco)+1% Iso-Vitalex (BBL)+1% hemoglobin (Difco). Broth cultures are diluted so that the final inoculum is about 10^4 -10^5 colony forming units/ml (CFU/ml). […] Neisseriae strains are incubated in a CO2 enriched atmosphere.

N. gonorrhoeae L 1596 = assay: as above; assay type: cell-based; details: Neisseria gonorrhoeae, L1596; N. gonorrhoeae L 1596, clinically isolated, resistant to spectinomycin; GC agar base + 1% Iso-Vitalex, CO2 enriched, 18-24 h, 37° C
Method: as §1

Row | SMILES | MIC (N. gonorrhoeae L 1599) | MIC (N. gonorrhoeae L 1596)
1 | CC1(C)S[C@@H]2[C@H](NC(=O)Cc3ccccc3)C(=O)N2[C@H]1C(=O)O [penicillin] | > 50 µg/mL | –
2 | CN[C@@H]1[C@H](O)[C@H](NC)[C@H]2O[C@@]3(O)C(=O)C[C@@H](C)O[C@H]3O[C@@H]2[C@H]1O [spectinomycin] | – | > 12 µg/mL
